The text below walks through data of patent publication US20230022796A1 (Merck Patent GmbH, priority 2019, published 2023).

The term Kd denotes a measure of binding affinity in units of concentration. Higher therefore signals lower affinity.

The subject of experiment [1] is CHO cell line producing mAb3. As to the kind of experiment: Glycosylation profile (UPLC-MS of released glycans) of mAb3 from fed-batch. The experiment is classed as cell-based, Chinese hamster. The conditions noted are these: mAb3, 400 μM additive. As to the method: (§1) Glycosylation patterns were analyzed by ultra-performance liquid chromatography coupled to a mass spectrometer (UPLC-MS). The purified antibody was denaturated and the glycans were released from the antibody by digestion with peptide N-glycosidase F (PNGase F) followed by labeling the glycans with the GlycoWorks™ RapiFluor-MS™ N-Glycan Kit according to the manufacturer protocol. For the analysis, an UPLC glycan column (2.1×150 mm) that separated the glycans according to their […] was used. The chromatography was performed at 45° C. using 50 mM ammonium formate (A), pH 4.4 solution and an acetonitrile (B) gradient. In detail, at the beginning the ratio of A:B was 20:80 (0 min) and changed to 27:73 at 3 min and 37:63 at 35 min at a flow rate of 0.5 ml/min. From 36.5 min to 39.5 min only A was used as mobile phase and the flow rate was reduced to 0.2 ml/min. Subsequently, the ratio was changed to 20% A:80% B and the flowrate was increased to 0.5 ml/min at 43.1 min until the end of the process at 55 min. The detection was performed by a fluorescence detector with an excitation wavelength of 265 nm and an emission wavelength of 425 nm. The identification of the glycan structures was performed by MS using positive electro spray ionization (ESI), which was calibrated every 30 s with a standard.
(§2) Four different clones of Chinese hamster ovary (CHO) cells expressing three different monoclonal antibodies (mAb) and a fusion protein were tested. Cells were cultivated in spin tubes between 14 and 20 days at 37° C., 5% CO2, and 80% humidity. As starting cell density, 3×10^5 cells/mL in 30 mL Cellvento®4CHO media (pH 7.0±0.1) was used for clone 1 and 2 producing mAb1 and mAb2, respectively (Cellvento® Platform). Cells were cultivated at an agitation of 320 rpm and were fed on day 3, 5, 10, 12 and 14 with 3% volume of Cellvento® 4Feed (v/v) and on day 7 with 6% (v/v) of the feed. Clone 3 and 4 producing mAb3 and a fusion protein were inoculated at the same cell density in 30 mL Ex-Cell® Advanced Media (pH 7.2±0.1) while agitation was set to 230 rpm (Ex-Cell® Platform). Clones 3 and 4 were fed with […] Advanced Feed (v/v) on day 3, 5, 7, 10, 12, 14 and 17. […] The pH of all Cellvento® feeds was adjusted to 7.0±0.1 and Ex-Cell® Feeds were adjusted to 8.5±0.1. The glucose level was maintained above 4 g/L by adding a specific amount of a 400 g/L glucose stock solution on demand to up to 6 g/L during the week and up to 13 g/L over the weekend. Glucose and titer were detected in the supernatant with the bioprocess analyzer CEDEX Bio HT (Roche, Mannheim, Germany).
(§3) To investigate the glycosylation profile during the fed-batch experiment samples were centrifugated and antibodies and Fc-fusion proteins were purified from the cell culture supernatant using protein A PhyTips® (PhyNexus Inc, San Jose, Calif.). Glycosylation patterns were analyzed as described by ultra-performance liquid chromatography coupled to a mass spectrometer (UPLC-MS) using the GlycoWorks™ RapiFluor-MS™ N-Glycan Kit.
(§4) Glycosylation profile on day 12 was visualized since harvest of recombinant produced proteins on day 12 is common. Quantification of the glycans was obtained using the relative peak area of the fluorescence signal. Almost all peaks were assigned to glycan structures according to their mass. Unknown glycan structures and signals without mass detection were summarized as unknown species (not shown). Four different clones of Chinese hamster ovary (CHO) cells expressing three different monoclonal antibodies (mAb) and a fusion protein were tested. […] The known positive control achieved a […] level on day 12 by increasing the afucosylation to 78%. The same amount of afucosylation compared to the known fucose-analogue acetylated 2F-Fucose was only achieved by clone 3 expressing mAb3 leading to about […] on day 12 (FIG. 8 C). […]

Experiment [2] deals with CHO cell line producing a fusion protein. As to the kind of experiment: Glycosylation profile (UPLC-MS of released glycans) of fusion protein from fed-batch. The conditions noted are these: 400 μM additive, day 12. Format: cell-based, Chinese hamster. The procedure: as §1, §2, §3
Glycosylation profile on day 12 was visualized since harvest of recombinant produced proteins on day 12 is common. Quantification of the glycans was obtained using the relative peak area of the fluorescence signal. Almost all peaks were assigned to glycan structures according to their mass. Unknown glycan structures and signals without mass detection were summarized as unknown species (not shown). Four different clones of Chinese hamster ovary (CHO) cells expressing three different monoclonal antibodies (mAb) and a fusion protein were tested. […] The known positive control achieved a 14% fucosylation level on day 12 by increasing the afucosylation to 78%. The same amount of afucosylation compared to the known fucose-analogue acetylated 2F-Fucose was only achieved by clone 3 expressing mAb3 leading to about 34% afucosylation on day 12 (FIG. 8 C).

Experiment [3] concerns CHO cell line producing mAb2. Put plainly: Glycosylation profile (UPLC-MS of released glycans) of mAb2 from fed-batch. The experiment is classed as cell-based, Chinese hamster. The conditions noted are these: mAb2, 400 μM additive, day 12. As to the method: as §1, §2, §3
Glycosylation profile on day 12 was visualized since harvest of recombinant produced proteins on day 12 is common. Quantification of the glycans was obtained using the relative peak area of the fluorescence signal. Almost all peaks were assigned to glycan structures according to their mass. Unknown glycan structures and signals without mass detection were summarized as unknown species (not shown). […]

The test system of experiment [4] is CHO cell line producing mAb1. Put plainly: Glycosylation profile (UPLC-MS of released glycans) of mAb1 from fed-batch. Format: cell-based, Chinese hamster. The conditions noted are these: for reduction of the fucosylation compared to the control: mAb1, same concentration of both additives; for fucosylation level / incorporation of the fucose-analogue: mean of day 7, 10 and 12. As to the method: as §1, §2, §3, §4

The next experiment relates to FcγRIIIa V176. Put plainly: Surface plasmon resonance (Biacore) binding of mAb3 from treated cultures to FcγRIIIa. The conditions noted are these: for Fold change (affinity vs control): mAb3, 400 μM additive; for Kd: mAb3 from culture fed with 400 μM additive. The procedure:
Binding of samples after 5-ThioFuc treatment was investigated by surface plasmon resonance technology using a Biacore T200 system (GE Healthcare, Uppsala, Sweden). The analysis temperature was set to 25° C. and sample compartment temperature to 15° C. […] The anti-His antibody was further used to capture His-tagged FcγRIIIa V176 ([…]) from AcroBiosystems (Newark, Del., USA).
Binding was recorded continuously, while unspecific binding and injection artefacts were subtracted automatically. Single-cycle kinetics were used with a dissociation time of 600 s at a flow rate of 30 μL/min. Data collection rate was performed at 10 Hz. Following each experiment, both flow cells were regenerated for 30 s with 10 mM glycine-HCl pH 1.5 according to kit instructions. Data of three technical and two biological replicates were fitted with a 1:1 binding model. The global dissociation constant KD was determined from the ratio of the kinetic rate constants for dissociation (kd) and association (ka) values. Data are presented in Table 1 as fold change compared to the control.
Background: Surface plasmon resonance follows binding to a sensor surface in real time, without labels.

In experiment [5] the test system is CHO cell line producing mAb3. As to the kind of experiment: Fed-batch cell performance (viable cell density), clone 3 producing mAb3. Format: cell-based, Chinese hamster. The conditions noted are these: mAb3, feed with 400 μM additive. The procedure: Four different clones of Chinese hamster ovary (CHO) cells expressing three different monoclonal antibodies (mAb) and a fusion protein were tested. Cells were cultivated in spin tubes between 14 and 20 days at 37° C., 5% CO2, and 80% humidity. As starting cell density, 3×10^5 cells/mL in 30 mL Cellvento®4CHO media (pH 7.0±0.1) was used for clone 1 and 2 producing mAb1 and mAb2, respectively (Cellvento® Platform). Cells were cultivated at an agitation rate of 320 rpm and were fed on day 3, 5, 10, 12 and 14 with 3% volume of Cellvento® 4Feed (v/v) and on day 7 with 6% (v/v) of the feed. Clone 3 and 4 producing mAb3 and a fusion protein were inoculated at the same cell density in 30 mL Ex-Cell® Advanced Media (pH 7.2±0.1) while agitation was set to 230 rpm. Clones 3 and 4 were fed with 5% Ex-Cell® Advanced Feed (v/v) on day 3, 5, 7, 10, 12, 14 and 17. […]
The glucose level was maintained above 4 g/L by adding a specific amount of a 400 g/L glucose stock solution on demand to up to 6 g/L during the week and up to 13 g/L over the weekend. Glucose and titer were detected in the supernatant with the bioprocess analyzer CEDEX Bio HT (Roche, Mannheim, Germany) based on spectrophotometric and turbidometric methods. The viable cell density (VCD) and viability were evaluated with a Vi-CELL™ XR 2.04 cell counter (Beckman Coulter, Fullerton, Calif., USA). […]

Where [6] appears, read: day 12, listed as acetylated 2F-Fucose.

Consider `CC(=O)OC1O[C@@H](C)[C@@H](OC(C)=O)[C@@H](OC(C)=O)[C@@H]1F` (stereo partly shown) [2F-Peracetylfucose, reference compound], for which the “% Afucosylated” value in experiment [1] (day 5) is given as 14.9%; in experiment [1] (day 12, listed as 2F-PerAcFuc), 34.2%; in experiment [1] (setting [6]), “about 34%”; in experiment [1] (day 14) it was 40.9%. Further, the “% fucose analogue (incorporated)” value stood at 0.3% in experiment [1] (day 5), 0.2% in experiment [1] (day 12) and 0.12% in experiment [1] (day 14). For the same compound, the “% Fucosylated” value in experiment [1] (day 5, listed as 2F-PerAcFuc) was 83.9%; in experiment [1] (day 5, listed as acetylated 2F-Fucose) it was “about 84%”; in experiment [1] (day 12, listed as 2F-PerAcFuc) it was 64.8%; in experiment [1] (setting [6]), 65%; in experiment [1] (day 14, listed as 2F-PerAcFuc), 57.4%; in experiment [1] (day 14, listed as acetylated 2F-Fucose), ~57%. Besides, the fucosylation level result in experiment [1] (day 7) is recorded as “about 78%”; in experiment [1] (day 10), ~72%. In addition, the afucosylation in experiment [2] was found to be 82%; in experiment [3], 78%; in experiment [4] (mAb1, 400 μM additive, day 12), 60%. The “incorporation of fucose analogue (% of the glycans)” value in experiment [2] is given as “without detectable incorporation”. In experiment [3], the core-fucosylation was found to be 14%. In addition, the core-fucosylated glycans in experiment [4] (mAb1, 400 μM additive, day 12) stood at 36%. Further, the “reduction of the fucosylation compared to the control” value was 11% in experiment [4] (day 7), 50% in experiment [4] (day 10) and 58% in experiment [4] (day 12). Further, the “Fold change (affinity vs control)” value in the experiment with FcγRIIIa V176 (day 5) is given as 1.3 fold; with FcγRIIIa V176 (day 12), 3.6 fold; in the experiment with FcγRIIIa V176 (day 14), 4.4 fold. The Kd was determined as 0.078 µM on FcγRIIIa V176 (day 5), 0.034 µM on FcγRIIIa V176 (day 12) and 0.023 µM at FcγRIIIa V176 (day 14).
As to acetylated 5-Thio-L-Fucose, the “reduced VCD (area under the curve until day 17, compared to the control)” value in experiment [5] is ~24%. Besides, in experiment [2], the afucosylation came to 52%, the “incorporation of fucose analogue (% of the glycans)” value stood at 39% and the “reduction of core-fucosylation compared to the control” value is listed as “about 63%”. Further, the core-fucosylation in experiment [3] was 8%. In experiment [4] (mAb1, 200 μM additive), the fucosylation level was 46% and the “incorporation of the fucose-analogue” value was 50%. Moreover, in experiment [4] (mAb1, 400 μM additive, day 12), the core-fucosylated glycans entry is on record as “about 26%” and the “incorporation of fucose analogue (% of the glycans)” value is listed as “about 70%”. In experiment [4] (mAb1, 400 μM additive), the fucosylation level is 16% and the “incorporation of the fucose-analogue” value came out at 81%. In experiment [4] (mAb1, 800 μM additive), the fucosylation level worked out at 9% and the “incorporation of the fucose-analogue” value was found to be 87%.
